Patent US20180250306A1, “ALDEHYDE CONJUGATES AND USES THEREOF” (ALDEYRA THERAPEUTICS, INC., priority 2015, published 2018)

Tests used:
[1] = Consumption of 4HNE over time (HPLC, 254 nm); settings: for Consumption of 4HNE, ranking, 7 Hours / Consumption of 4HNE, ranking, 23 Hours: rank from most effective (1) to least; for Consumption of 4HNE, ranking, 23 Hours: ranks 1-4 essentially identical; for decrease in HNE relative to corresponding increase in adduct: 1 week time period
Description: 5 of 6 samples show consumption of 4HNE. One sample (2-(3-aminoquinolin-2-yl)propan-2-ol) overlaps 4HNE HPLC peak using current method. Best fit lines over this period give poorer fit to data than product formation data. Rate of 4HNE consumption can be used as an approximation of binding kinetics. […] The data were used to rank relatively each of the samples examined, including NS-2 but excluding 2-(3-aminoquinolin-2-yl)propan-2-ol.

[2] = Aldehyde adduct formation over time (product HPLC peak); settings: for Formation of Product, ranking, 7 Hours / Formation of Product, ranking, 23 Hours: rank from most effective (1) to least
Method: It is not possible to conclude if this is the result of poor dissociation (from cyclodextrin) or poor interaction with the aldehyde. Best fit lines over this period give excellent fit to data. […] It can be used to relatively rank each of the samples examined, including NS2. The data were first evaluated over a 7 h time window.

Structure (SMILES) | Gradient of 4HNE consumption ([1]; 23 h) | Gradient of 4HNE consumption ([1]; first 7 h, analysis at 254 nm) | Consumption of 4HNE, ranking, 7 Hours [1] | Consumption of 4HNE, ranking, 23 Hours [1] | Gradient of product HPLC peak increase (rate of adduct formation) ([2]; 7 h time window) | Gradient of product HPLC peak increase (rate of adduct formation) ([2]; 23 h time window) | Formation of Product, ranking, 7 Hours [2] | Formation of Product, ranking, 23 Hours [2] | decrease in HNE relative to corresponding increase in adduct [1]
CC(C)(O)c1nc2ccc(Br)cc2cc1N [2-(3-amino-6-bromoquinolin-2-yl)propan-2-ol] | (Gradient −0.04, | (Gradient −0.04, | 4 | 4 | (Gradient 1.63, | (Gradient 1.16, | 4 | 4 | –
CC(C)(O)c1nc2cc(Cl)ccc2cc1N [2-(3-amino-7-chloroquinolin-2-yl)propan-2-ol] | (Gradient −0.05, | (Gradient −0.06, | 2 | 1 | (Gradient 2.02, | (Gradient 1.21, | 3 | 3 | greater
CC(C)(O)c1nc2ccccc2cc1N [2-(3-aminoquinolin-2-yl)propan-2-ol] | – | – | – | – | (Gradient 3.68, | (Gradient 1.99, | 1 | 1 | –
CC(C)(O)c1nc2cccc(Cl)c2cc1N [2-(3-amino-5-chloroquinolin-2yl)propan-2-ol] | (Gradient −0.04, | (Gradient −0.05, | 3 | 2 | (Gradient 0.86, | (Gradient 0.44, | 6 | 6 | –
CC(C)(O)c1nc2c(Cl)cccc2cc1N [2-(3-amino-8-chloroquinolin-2-yl)propan-2-ol] | (Gradient −0.02, | (Gradient −0.01, | 5 | 5 | (Gradient 1.18, | (Gradient 0.81, | 5 | 5 | greater
